Source: publication PMC9564337, “Development of a Neurotensin-Derived ^68Ga-Labeled PET Ligand with High In Vivo Stability for Imaging of NTS1 Receptor-Expressing Tumors” (Cancers, 2022)
Where two headings read alike, the source gives them in different places.

What was measured:
in vitro = in vitro ADME; conditions: human; for remaining at 1 h, 100 µM / remaining at 6 h, 100 µM / remaining at 24 h, 100 µM / remaining at 48 h, 100 µM: plasma; for remaining at 1 h, 100 µM: pH 7.4, % Intact Peptide in Plasma after 1 h; for remaining at 6 h, 100 µM: pH 7.4, % Intact Peptide in Plasma after 6 h; for remaining at 24 h, 100 µM: pH 7.4, % Intact Peptide in Plasma after 24 h; for remaining at 48 h, 100 µM: pH 7.4, % Intact Peptide in Plasma after 48 h
Protocol: The concentration of the peptides in plasma/PBS (1:2 v/v) was 80 and 4 μM (recovery determination) or 100 μM (stability tests). Data analysis was based on UV detection at 220 nm (8, 9, 11, 12, 14-18, 21-23, 38-49, and 54-57) or fluorescence detection at 275/305 nm (19 and 20). Reference samples, representing 100% recovery, were prepared in duplicate (8, 9, 11, 14-16, and 19-21) or quadruplicate (12, 17, 18, 22, 23, 38-49, and 54-57). Recovery ratios were obtained by dividing the recovery of the peptide by the recovery of IS for each individual sample (n = 3-5). The obtained recoveries and the recovery ratios are summarized in Table S2, Supplementary Materials. […] Instead, the recovery ratios determined for the previously reported, structurally closely related peptide […] [40] were used for calculating the amount of remaining intact peptide in plasma.

hNTS1R = biological target: T1, hNTS1R (Homo sapiens, UniProt P30989); assay: radioligand competition binding with [3H]UR-MK300 at intact HT-29 cells; conditions: for pKi ± SD NTS1R / Ki: [3H]UR-MK300 c = 1 nM, HT-29 cells, 23 °C
T1 construct: intact HT-29 colon carcinoma cells expressing the hNTS1R; host or cells: HT-29 human colon carcinoma cells
T1 sequence (P30989 whole entry): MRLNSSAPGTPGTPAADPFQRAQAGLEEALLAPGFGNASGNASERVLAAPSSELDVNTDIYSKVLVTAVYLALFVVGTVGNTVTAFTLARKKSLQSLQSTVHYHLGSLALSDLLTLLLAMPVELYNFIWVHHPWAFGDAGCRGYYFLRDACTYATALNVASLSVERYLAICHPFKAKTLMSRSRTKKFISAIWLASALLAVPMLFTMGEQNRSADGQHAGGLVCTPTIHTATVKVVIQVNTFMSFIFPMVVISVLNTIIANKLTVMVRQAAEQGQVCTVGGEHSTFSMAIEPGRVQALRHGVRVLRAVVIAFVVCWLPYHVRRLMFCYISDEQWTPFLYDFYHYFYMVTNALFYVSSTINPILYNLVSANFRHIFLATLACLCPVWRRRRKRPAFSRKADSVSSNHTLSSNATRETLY
Excerpt: Specific binding data (obtained by subtracting unspecific binding from total binding) were normalized (100% = specifically bound radioligand in the absence of competitor) and plotted over log(concentration of competitor) followed by a four-parameter logistic fit (SigmaPlot 12.5, Systat Software, San José, CA, USA) (note: in the case of 40, the lower curve plateau of the sigmoidal fit was constrained to >0). […] The Ki values from individual experiments were transformed to pKi values, followed by the calculation of mean pKi values ± SD.

hNTS2R = hNTS2R (Homo sapiens, UniProt O95665); assay: radioligand competition binding with [3H]UR-MK300 at intact HEK293T-hNTS2R cells; conditions: [3H]UR-MK300 c = 10 nM
hNTS2R, sequence (O95665 whole entry): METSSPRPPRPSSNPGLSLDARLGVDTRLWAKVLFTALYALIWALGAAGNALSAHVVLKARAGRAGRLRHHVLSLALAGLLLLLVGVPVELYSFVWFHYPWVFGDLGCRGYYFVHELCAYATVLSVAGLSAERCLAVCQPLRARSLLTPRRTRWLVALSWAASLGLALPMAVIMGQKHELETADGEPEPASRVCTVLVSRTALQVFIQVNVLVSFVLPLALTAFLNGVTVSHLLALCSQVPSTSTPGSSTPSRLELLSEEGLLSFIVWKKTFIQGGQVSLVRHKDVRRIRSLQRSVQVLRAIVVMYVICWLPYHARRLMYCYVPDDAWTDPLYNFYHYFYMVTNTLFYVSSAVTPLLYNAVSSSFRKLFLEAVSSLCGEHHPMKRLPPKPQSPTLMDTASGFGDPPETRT
Protocol: Two days prior to the experiment, white 96-well plates with clear bottoms (Costar, catalog no. 3610) were treated with poly-D-lysine hydrobromide (Sigma-Aldrich) for 10 min. The wells were washed with H2O and the plates were dried on air at rt overnight. […] After removal of the glutaraldehyde solution, the wells were washed twelve times with H2O and two times with culture medium (150–300 µL). […] On the day of the experiment, the culture medium was carefully removed using a multi-channel pipette (Transferpette S-12, Brand, Wertheim, Germany) and the cells were washed once with Dulbecco’s phosphate-buffered saline (D-PBS) containing Ca^2+ and Mg^2+ (1.8 mM CaCl2, 2.68 mM KCl, 1.47 mM KH2PO4, 3.98 mM MgSO4, 136.9 mM NaCl and 8.06 mM Na2HPO4) (200 μL, rt) followed by the careful pre-filling of the wells with 180 µL (total binding) or 160 µL (unspecific and competition binding) of D-PBS, supplemented with 1% BSA and 100 μg/mL bacitracin (Serva, Heidelberg, Germany) (in the following referred to as binding buffer). To determine total binding, 20 µL of a solution of the radioligand in binding buffer (10-fold concentrated compared to the final concentration) were added. […] To determine the displacing effect of a compound of interest, 20 µL of a solution of the respective compound in binding buffer (10-fold concentrated) and 20 µL of a 10-fold concentrated solution of the radioligand in binding buffer were added. During the incubation period of 2 h at 23 °C, the plates were gently shaken. […] The plates were sealed with a transparent sealing tape (permanent seal for microplates, PerkinElmer, product no. 1450–461) and turned upside down several times to achieve complete mixing. Prior to the measurement of the radioactivity with a MicroBeta2 plate counter (PerkinElmer), the plates were kept in the dark for at least 1 h. All experiments were performed in triplicate.

[1] = read-out: Ki [nM] NTS1R (converted)
[2] = read-out: Ki [nM] NTS2R (converted)
[3] = read-out: pKi ± SD NTS2R (converted)
[4] = read-out: pKi ± SD NTS1R (converted)

| Structure (SMILES) | remaining at 1 h, 100 µM (in vitro) [%] | remaining at 6 h, 100 µM (in vitro) [%] | remaining at 24 h, 100 µM (in vitro) [%] | remaining at 48 h, 100 µM (in vitro) [%] | lower NTS1R affinity compared to 56 (hNTS1R; 57 versus 56) [fold] | pKi ± SD NTS1R (hNTS1R) | Ki (hNTS1R; [1]) [nM] | Ki (hNTS2R; [2]) [nM] | pKi ± SD NTS2R (hNTS2R) | % Intact Peptide in Plasma after 1 h (in vitro; 1 h, 100 µM, pH 7.4) [%] | % Intact Peptide in Plasma after 6 h (in vitro; 100 µM, pH 7.4) [%] | % Intact Peptide in Plasma after 24 h (in vitro; 100 µM, pH 7.4) [%] | % Intact Peptide in Plasma after 48 h (in vitro; 100 µM, pH 7.4) [%] | NTS1R Selectivity (Ratio Ki (NTS2R)/Ki (NTS1R)) (hNTS1R) | Ki (hNTS2R; [3]) [nM] | Ki (hNTS1R; [4]) [nM] |
| --- | --- | --- | --- | --- | --- | --- | --- | --- | --- | --- | --- | --- | --- | --- | --- | --- |
| CCC(CC)(NC(=O)[C@H](Cc1ccc(O)cc1)NC(=O)[C@@H]1CCCN1C(=O)[C@H](CCCNC(=N)N)NC(=O)[C@H](CCCNC(=N)N)NC)C(=O)N[C@@H](CC(C)C)C(=O)O [Compound 39] | 93 ± 1 | 94 ± 1 | 93 ± 1 | 93 ± 1 |  |  | > 1000 |  |  |  |  |  |  |  |  | > 1000 |
| CC(C)C[C@H](NC(=O)[C@@H](NC(=O)[C@H](Cc1ccc(O)cc1)NC(=O)[C@@H]1CCCN1C(=O)[C@H](CCCNC(=N)NC(=O)NCCCCN)N(C)C(=O)[C@@H](N)CCCNC(=N)N)C(C)(C)C)C(=O)O [Compound 11] | > 99 | > 99 | > 99 | > 99 |  |  | 13 | 27 |  |  |  |  |  | 2.1 |  |  |
| CN[C@@H](CCCNC(N)=NC(=O)NCCCCNC(=O)CN1CCN(CC(=O)O)CCN(CC(=O)O)CCN(CC(=O)O)CC1)C(=O)N[C@@H](CCCNC(=N)N)C(=O)N1CCC[C@H]1C(=O)N[C@@H](Cc1ccc(O)cc1)C(=O)N[C@H](C(=O)N[C@@H](CC(C)C)C(=O)O)C(C)(C)C [Compound 16] |  |  |  |  |  |  | 33 | 150 |  |  |  | 93 ± 3 | 84 ± 2 | 4.5 | 138 | 33.1 |

More lines, main results first:

| remaining at 1 h, 100 µM (in vitro) [%] | remaining at 6 h, 100 µM (in vitro) [%] | remaining at 24 h, 100 µM (in vitro) [%] | remaining at 48 h, 100 µM (in vitro) [%] | lower NTS1R affinity compared to 56 (hNTS1R; 57 versus 56) [fold] | pKi ± SD NTS1R (hNTS1R) | Ki (hNTS1R; [1]) [nM] | Ki (hNTS2R; [2]) [nM] | pKi ± SD NTS2R (hNTS2R) | % Intact Peptide in Plasma after 1 h (in vitro; 1 h, 100 µM, pH 7.4) [%] | % Intact Peptide in Plasma after 6 h (in vitro; 100 µM, pH 7.4) [%] | % Intact Peptide in Plasma after 24 h (in vitro; 100 µM, pH 7.4) [%] | % Intact Peptide in Plasma after 48 h (in vitro; 100 µM, pH 7.4) [%] | NTS1R Selectivity (Ratio Ki (NTS2R)/Ki (NTS1R)) (hNTS1R) | Structure (SMILES) | Ki (hNTS2R; [3]) [nM] | Ki (hNTS1R; [4]) [nM] |
| --- | --- | --- | --- | --- | --- | --- | --- | --- | --- | --- | --- | --- | --- | --- | --- | --- |
| > 99 | > 99 | 68 ± 1 | < 1 | 18 | 7.67 ± 0.04 | 21 |  |  |  |  |  |  |  | CN[C@@H](CCCNC(N)=NC(=O)NCCCCNC(=O)CN1CCN(CC(=O)O)CCN(CC(=O)O)CCN(CC(=O)O)CC1)C(=O)N[C@@H](CCCNC(=N)N)C(=O)N1CCC[C@H]1C(=O)N[C@H](C(=O)N[C@H](C(=O)N[C@@H](CC(C)C)C(=O)O)C(C)(C)C)C(C)(C)c1ccc(O)cc1 [Compound 57] |  |  |
|  |  |  |  |  |  |  | 450 |  |  |  |  |  |  | CN[C@@H](CCCNC(N)=NC(=O)NCCCCN)C(=O)N[C@@H](CCCNC(=N)N)C(=O)N1CCC[C@H]1C(=O)N[C@@H](C(=O)N[C@H](C(=O)N[C@@H](CC(C)C)C(=O)O)C(C)(C)C)C(C)(C)c1ccc(O)cc1 [Compound 53] | 398 |  |
|  |  |  |  |  | 7.70 ± 0.07 | 20 | 88 | 7.08 ± 0.16 | >99 | 87 ± 2 | 30 ± 1 | 7.7 ± 1.0 | 4.4 | CC(C)C[C@H](NC(=O)[C@@H](NC(=O)[C@H](Cc1ccc(O)cc1)NC(=O)[C@@H]1CCCN1C(=O)[C@H](CCCNC(N)=NC(=O)NCCCCNC(=O)CN1CCN(CC(=O)O)CCN(CC(=O)O)CCN(CC(=O)O)CC1)N(C)C(=O)[C@@H](N)CCCNC(=N)N)C(C)(C)C)C(=O)O [Compound 22] |  |  |
|  | 99 ± 1 |  |  |  |  | 36 |  |  |  |  | 94 ± 1 | 86 ± 1 |  | CN[C@@H](CCCNC(=N)NC(=O)NCCOCCOCCNC(=O)CN1CCN(CC(=O)O)CCN(CC(=O)O)CCN(CC(=O)O)CC1)C(=O)N[C@@H](CCCNC(=N)N)C(=O)N1CCC[C@H]1C(=O)N[C@@H](Cc1ccc(O)cc1)C(=O)N[C@H](C(=O)N[C@@H](CC(C)C)C(=O)O)C(C)(C)C [Compound 18] |  |  |
| > 99 |  |  |  |  | 8.13 ± 0.11 | 7.5 |  |  |  | 98 ± 6 | 46 ± 2 | 7.8 ± 0.6 |  | CN[C@@H](CCCNC(N)=NC(=O)NCCOCCOCCNC(=O)CN1CCN(CC(=O)O)CCN(CC(=O)O)CCN(CC(=O)O)CC1)C(=O)N[C@@H](CCCNC(=N)N)C(=O)N1CCC[C@H]1C(=O)N[C@@H](Cc1ccc(O)cc1)C(=O)N[C@H](C(=O)N[C@@H](CC(C)C)C(=O)O)C(C)(C)C [Compound 23] |  |  |
